Data reported in patent publication US20250295646A1, “METHODS OF USE OF T-TYPE CALCIUM CHANNEL MODULATORS” (Praxis Precision Medicines, Inc., priority 2022, published 2025).

Experiments:
[1] = system: adult patients with essential tremor; experiment: Essential tremor trial Example 16 Part A (open label 20-40 mg): TETRAS efficacy; assay type: in vivo, human; conditions: for TETRAS CULS Score CFB LS Mean / TETRAS PS Item 6: Archimedes Spiral (Left) Score CFB LS Mean / TETRAS PS Item 6: Archimedes Spiral (Right) Score CFB LS Mean / TETRAS PS Item 7: Handwriting Score CFB LS Mean / TETRAS PSTS Score CFB LS Mean / TETRAS ULS Score CFB LS Mean / TETRAS CULS CTA LS Mean % / TETRAS PS Item 6: Archimedes Spiral (Left) CTA LS Mean % / TETRAS PS Item 6: Archimedes Spiral (Right) CTA LS Mean % / TETRAS PS Item 7: Handwriting CTA LS Mean % / TETRAS PSTS CTA LS Mean % / TETRAS ULS CTA LS Mean %: FAS
Method: A two part trial (Part A and Part B as described below) was conducted to study the efficacy, safety, tolerability, and pharmacokinetics of the compound of formula (I) in adult patients with essential tremor (ET).
Participants were males and females ages 18 and older with a clinical diagnosis of ET. Participants who have a history of any other medical, neurological, or psychiatric condition that may explain or cause tremor were excluded. Participants who have previously received treatment with formula (I) in any clinical trial (including Part A of the current trial for participants enrolling in Part B) were also excluded.
In Part A, an open label trial was conducted.

hCav3.2 = target: T1, hCav3.2 (Homo sapiens, UniProt O95180); experiment: PatchXpress patch clamp, voltage dependent block (half-inactivated state); assay type: cell-based
T1 construct: expressed in transfected cells; host or cells: HEK-293
Method: The voltage dependence of calcium channel isoforms was determined by comparing the activity of resting (Tonic Block) and half-inactivated (Voltage Dependent Block) voltages across various concentrations of Formula (II). First, HEK-293 cells containing hCav3.1, hCav3.2, or hCav3.3 calcium channel isoforms were prepared by seeding at 2×10^6 cells per flask in culture for 2 days; the cells were then harvested at about 6×10^6 cells. Harvested cells were washed once in DPBS for approximately 30 minutes, and 1 mL of 1× (0.05%) Trypsin-EDTA was added, swirled, and allowed to sit on the cells for approximately 4 minutes. […]
Pharmacology was measured during Epoch 1. Percent inhibition was calculated as: 100*((([Step 2+Step 5]/2)−Step3)/(Step 2+Step 5/2)), wherein Step 2 is the peak current measured at baseline, Step 5 is the current measured during the wash period, and Step 3 is the peak current measured during application of the compound. […]
The effect of the compound on peak current amplitude was monitored using the voltage protocol described above and washed out after reaching steady state as determined by PatchXpress stability scripts. […] Washout current for the calculation of inhibition was determined by resetting the holding potential to the previously determined half-inactivation potential (V0.5) and measuring peak current from this holding potential. […]

[2] = Day 7, change from pre-dose baseline
[3] = Day 7, change in tremor amplitude from pre-dose baseline
[4] = Day 14, change from pre-dose baseline
[5] = Day 14, change in tremor amplitude from pre-dose baseline
[6] = Day 21 (FU Assessment), change from pre-dose baseline
[7] = Day 21 (FU Assessment), change in tremor amplitude from pre-dose baseline

T1 sequence (O95180 whole entry): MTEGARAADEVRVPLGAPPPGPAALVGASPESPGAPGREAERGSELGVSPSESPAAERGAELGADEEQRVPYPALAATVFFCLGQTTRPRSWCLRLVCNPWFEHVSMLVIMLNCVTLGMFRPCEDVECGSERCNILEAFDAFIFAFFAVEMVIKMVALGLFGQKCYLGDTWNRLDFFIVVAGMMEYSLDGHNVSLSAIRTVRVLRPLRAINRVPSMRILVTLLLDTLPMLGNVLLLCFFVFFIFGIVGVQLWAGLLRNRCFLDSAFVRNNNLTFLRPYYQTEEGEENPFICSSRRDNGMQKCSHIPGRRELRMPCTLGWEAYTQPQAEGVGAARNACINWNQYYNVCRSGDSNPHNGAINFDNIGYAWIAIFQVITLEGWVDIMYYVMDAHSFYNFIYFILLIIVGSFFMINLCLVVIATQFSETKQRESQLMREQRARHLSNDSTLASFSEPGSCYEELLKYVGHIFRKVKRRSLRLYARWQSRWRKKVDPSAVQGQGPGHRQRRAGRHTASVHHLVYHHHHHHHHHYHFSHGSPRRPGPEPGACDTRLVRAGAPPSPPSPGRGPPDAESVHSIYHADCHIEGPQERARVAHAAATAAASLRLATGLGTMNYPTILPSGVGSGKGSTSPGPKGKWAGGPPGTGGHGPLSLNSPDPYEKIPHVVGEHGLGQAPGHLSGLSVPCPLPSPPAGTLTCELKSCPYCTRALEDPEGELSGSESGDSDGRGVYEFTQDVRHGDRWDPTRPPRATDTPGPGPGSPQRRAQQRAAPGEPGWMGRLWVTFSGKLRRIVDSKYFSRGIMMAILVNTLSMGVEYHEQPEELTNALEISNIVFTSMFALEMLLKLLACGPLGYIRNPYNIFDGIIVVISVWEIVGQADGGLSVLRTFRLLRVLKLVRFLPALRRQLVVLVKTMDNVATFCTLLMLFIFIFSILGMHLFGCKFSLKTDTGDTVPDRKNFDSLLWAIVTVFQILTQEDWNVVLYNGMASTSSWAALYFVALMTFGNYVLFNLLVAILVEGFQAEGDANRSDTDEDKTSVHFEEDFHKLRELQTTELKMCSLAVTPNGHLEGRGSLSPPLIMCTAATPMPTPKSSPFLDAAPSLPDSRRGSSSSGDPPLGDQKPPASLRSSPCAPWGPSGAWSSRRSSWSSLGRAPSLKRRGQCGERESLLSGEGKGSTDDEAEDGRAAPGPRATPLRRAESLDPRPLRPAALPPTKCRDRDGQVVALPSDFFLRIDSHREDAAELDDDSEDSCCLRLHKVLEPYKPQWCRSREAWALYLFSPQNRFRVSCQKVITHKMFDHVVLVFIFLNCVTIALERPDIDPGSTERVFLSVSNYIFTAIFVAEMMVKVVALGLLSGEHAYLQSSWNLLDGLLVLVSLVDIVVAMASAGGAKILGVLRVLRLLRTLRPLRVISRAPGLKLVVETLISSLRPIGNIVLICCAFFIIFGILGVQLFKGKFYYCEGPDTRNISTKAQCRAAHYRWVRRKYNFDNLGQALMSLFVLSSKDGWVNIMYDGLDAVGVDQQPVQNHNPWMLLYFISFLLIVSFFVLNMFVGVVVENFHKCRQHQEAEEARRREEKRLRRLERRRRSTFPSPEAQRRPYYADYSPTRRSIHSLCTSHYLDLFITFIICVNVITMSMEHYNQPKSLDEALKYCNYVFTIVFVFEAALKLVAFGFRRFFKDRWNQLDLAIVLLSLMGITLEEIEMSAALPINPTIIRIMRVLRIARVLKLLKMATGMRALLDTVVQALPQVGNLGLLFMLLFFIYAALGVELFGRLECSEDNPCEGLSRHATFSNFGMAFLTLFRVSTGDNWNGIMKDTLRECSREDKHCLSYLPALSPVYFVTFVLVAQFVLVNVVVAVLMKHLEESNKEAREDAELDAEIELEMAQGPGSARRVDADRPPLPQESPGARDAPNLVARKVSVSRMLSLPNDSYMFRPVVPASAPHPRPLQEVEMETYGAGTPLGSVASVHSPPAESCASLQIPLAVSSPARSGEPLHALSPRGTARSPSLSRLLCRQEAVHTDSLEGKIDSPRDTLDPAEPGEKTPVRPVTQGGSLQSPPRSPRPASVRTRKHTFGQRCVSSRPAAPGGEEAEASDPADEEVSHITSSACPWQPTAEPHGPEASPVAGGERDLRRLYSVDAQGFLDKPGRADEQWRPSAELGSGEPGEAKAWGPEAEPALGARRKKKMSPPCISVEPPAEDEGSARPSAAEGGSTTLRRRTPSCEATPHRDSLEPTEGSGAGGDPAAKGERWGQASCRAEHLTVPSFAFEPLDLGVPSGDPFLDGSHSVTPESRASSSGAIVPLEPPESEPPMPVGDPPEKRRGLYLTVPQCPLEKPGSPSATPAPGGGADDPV

CC(C)(C)NC(=O)CN1CCC(CNC(=O)c2cc(F)cc(Cl)c2)CC1 [compound of formula (I), N-((1-(2-(tert-butylamino)-2-oxoethyl)piperidin-4-yl)methyl)-3-chloro-5-fluorobenzamide]
TETRAS combined upper limb score, LS mean change from pre-dose baseline ([1]; Day 7): −1.667
TETRAS upper limb score, LS mean change from pre-dose baseline ([1]; Day 7): −1.427
reduction in combined upper limb tremor amplitude ([1]; Day 7): 16.0%
reduction in upper limb tremor amplitude ([1]; Day 7): 23.9%
TETRAS combined upper limb score, LS mean change from pre-dose baseline ([1]; Day 14): −4.239
TETRAS upper limb score, LS mean change from pre-dose baseline ([1]; Day 14): −2.912
reduction in combined upper limb tremor amplitude ([1]; Day 14): 35.8%
reduction in upper limb tremor amplitude ([1]; Day 14): 42.8%
TETRAS combined upper limb score, LS mean change from pre-dose baseline ([1]; Day 21 follow-up): −0.278
reduction in combined upper limb tremor amplitude ([1]; Day 21 follow-up): 2.9%
reduction in upper limb tremor amplitude ([1]; Day 21 follow-up): 20.3%
TETRAS upper limb score, LS mean change from pre-dose baseline ([1]; Day 21 follow-up (1 week after cessation)): −1.183
TETRAS CULS Score CFB LS Mean [1, 2]: −1.667
TETRAS PS Item 6: Archimedes Spiral (Left) Score CFB LS Mean [1, 2]: −0.213
TETRAS PS Item 6: Archimedes Spiral (Right) Score CFB LS Mean [1, 2]: −0.091
TETRAS PS Item 7: Handwriting Score CFB LS Mean [1, 2]: −0.012
TETRAS PSTS Score CFB LS Mean [1, 2]: −1.990
TETRAS ULS Score CFB LS Mean [1, 2]: −1.427
TETRAS CULS CTA LS Mean % [1, 3]: −16.0%
TETRAS PS Item 6: Archimedes Spiral (Left) CTA LS Mean % [1, 3]: −21.8%
TETRAS PS Item 6: Archimedes Spiral (Right) CTA LS Mean % [1, 3]: −9.9%
TETRAS PS Item 7: Handwriting CTA LS Mean % [1, 3]: −1.4%
TETRAS PSTS CTA LS Mean % [1, 3]: −13.3%
TETRAS ULS CTA LS Mean % [1, 3]: −23.9%
TETRAS CULS Score CFB LS Mean [1, 4]: −4.239
TETRAS PS Item 6: Archimedes Spiral (Left) Score CFB LS Mean [1, 4]: −0.468
TETRAS PS Item 6: Archimedes Spiral (Right) Score CFB LS Mean [1, 4]: −0.346
TETRAS PS Item 7: Handwriting Score CFB LS Mean [1, 4]: −0.348
TETRAS PSTS Score CFB LS Mean [1, 4]: −5.163
TETRAS ULS Score CFB LS Mean [1, 4]: −2.912
TETRAS CULS CTA LS Mean % [1, 5]: −35.8%
TETRAS PS Item 6: Archimedes Spiral (Left) CTA LS Mean % [1, 5]: −41.7%
TETRAS PS Item 6: Archimedes Spiral (Right) CTA LS Mean % [1, 5]: −32.9%
TETRAS PS Item 7: Handwriting CTA LS Mean % [1, 5]: −33.0%
TETRAS PSTS CTA LS Mean % [1, 5]: −31.0%
TETRAS ULS CTA LS Mean % [1, 5]: −42.8%
TETRAS CULS Score CFB LS Mean [1, 6]: −0.278
TETRAS PS Item 6: Archimedes Spiral (Left) Score CFB LS Mean [1, 6]: 0.201
TETRAS PS Item 6: Archimedes Spiral (Right) Score CFB LS Mean [1, 6]: −0.061
TETRAS PS Item 7: Handwriting Score CFB LS Mean [1, 6]: 0.330
TETRAS PSTS Score CFB LS Mean [1, 6]: −1.293
TETRAS ULS Score CFB LS Mean [1, 6]: −1.183
TETRAS CULS CTA LS Mean % [1, 7]: −2.9%
TETRAS PS Item 6: Archimedes Spiral (Left) CTA LS Mean % [1, 7]: 20.7%
TETRAS PS Item 6: Archimedes Spiral (Right) CTA LS Mean % [1, 7]: −6.7%
TETRAS PS Item 7: Handwriting CTA LS Mean % [1, 7]: 31.6%
TETRAS PSTS CTA LS Mean % [1, 7]: −8.9%
TETRAS ULS CTA LS Mean % [1, 7]: −20.3%

CC(C)(C)NC(=O)CN1CCC(CNC(=O)c2cc(F)cc(Cl)c2)CC1.Cl [compound of formula (II), N-((1-(2-(tert-butylamino)-2-oxoethyl)piperidin-4-yl)methyl)-3-chloro-5-fluorobenzamide hydrochloride]
tonic block/voltage dependent block (TB/VDB) ratio (hCav3.2): 2.0
